Measured values published in patent JP2014001205A, “動物の寄生虫防除剤” (Nissan Chemical Corp, priority 2012, dated 2014).

Assays:
[1] = tested on: cat flea (Ctenocephalides felis) adults [ネコノミ(Ctenocephalides felis)成虫]; experiment: Efficacy test against cat flea (Test Example 1), glass container film contact; assay type: in vivo; conditions: 96 h, 10μg/cm2, 5 adults (mixed sex), 25℃, 4 days, duplicate, read-out: efficacy (number of insects with abnormal behaviour due to compound / number released × 100)
[2] = tested on: American dog tick (Dermacentor variabilis) first nymphs [American dog tick(Dermacentor variabilis)第1若虫]; experiment: Efficacy test against American dog tick (Test Example 2), glass container film contact; assay type: in vivo; conditions: 96 h, 10μg/cm2, 5 first nymphs (mixed sex), 25℃, 4 days, duplicate, read-out: efficacy (number with abnormal behaviour due to compound / number released × 100)

| SMILES | pest or weed control at 10 µg/cm2 [1] | pest or weed control at 10 µg/cm2 [2] |
| --- | --- | --- |
| CCN(C(=O)C=CSC)c1cn(-c2cccnc2)nc1Cl (single isomer, unassigned) [1−071] | ≥ 80% | ≥ 80% |
| CSC[C@@H](C)C(=O)N(C)c1cn(-c2cccnc2)nc1Cl [1−039(S)−(−)] | ≥ 80% | ≥ 80% |
| CCN(C(=O)[C@H](C)CS(C)(=O)=O)c1cn(-c2cccnc2)nc1Cl [1−050(S)−(+)] | ≥ 80% | ≥ 80% |
| CCN(C(=O)CSC)c1cn(-c2cccnc2)nc1Cl [1−079] | ≥ 80% | ≥ 80% |
| CCN(C(=O)CS(C)(=O)=O)c1cn(-c2cccnc2)nc1Cl [1−080] | ≥ 80% | ≥ 80% |
| CCN(C(=O)COC(C)=O)c1cn(-c2cccnc2)nc1Cl [1−082] | ≥ 80% | ≥ 80% |
| CCCSC(C)C(=O)N(CC)c1cn(-c2cccnc2)nc1Cl (centres unmarked) [1−246] | ≥ 80% | ≥ 80% |
| CCc1nn(-c2cccnc2)cc1NC(=O)OC(C)(C)C [1−435] | ≥ 80% | ≥ 80% |
| CCCC(C)C(=O)N(CC)c1cn(-c2cccnc2)nc1Cl (centres unmarked) [1−483] | ≥ 80% | ≥ 80% |
| CCSC(C)C(=Nc1cn(-c2cccnc2)nc1Cl)SC (centres unmarked) [3−006, メチル N−3−クロロ−1−(ピリジン−3−イル)−1H−ピラゾール−4−イル−2−(エチルチオ)プロパンイミドチオエート] | ≥ 80% |  |
| Cc1c(NC(=O)OC(C)(C)C)cnn1-c1cccnc1 [5−001, tert−ブチル 5−メチル−1−(ピリジン−3−イル)−1H−ピラゾール−4−イルカーバメート] | ≥ 80% |  |
